The target of assay [1] is T1, Sodium/nucleoside cotransporter 2 (Homo sapiens, UniProt O43868).
T1 sequence (O43868 whole entry): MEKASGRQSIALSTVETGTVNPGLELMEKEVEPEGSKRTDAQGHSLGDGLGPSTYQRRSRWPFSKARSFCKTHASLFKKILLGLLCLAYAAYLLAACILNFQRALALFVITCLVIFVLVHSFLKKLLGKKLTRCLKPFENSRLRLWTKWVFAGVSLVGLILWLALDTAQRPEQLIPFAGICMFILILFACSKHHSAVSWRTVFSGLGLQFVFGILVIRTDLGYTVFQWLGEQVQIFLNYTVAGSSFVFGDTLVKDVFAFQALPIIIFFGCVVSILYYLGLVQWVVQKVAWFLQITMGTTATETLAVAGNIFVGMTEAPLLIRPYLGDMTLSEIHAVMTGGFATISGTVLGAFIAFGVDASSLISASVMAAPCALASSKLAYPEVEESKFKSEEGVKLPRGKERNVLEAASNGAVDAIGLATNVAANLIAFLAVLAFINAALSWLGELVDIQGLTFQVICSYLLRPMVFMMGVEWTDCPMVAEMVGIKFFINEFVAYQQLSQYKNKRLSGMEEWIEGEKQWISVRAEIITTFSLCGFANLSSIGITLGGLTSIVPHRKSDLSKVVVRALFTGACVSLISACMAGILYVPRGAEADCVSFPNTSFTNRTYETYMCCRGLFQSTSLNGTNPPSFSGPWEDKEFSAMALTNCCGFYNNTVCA
Description: Inhibition of human CNT2 expressed in COS7 cells assessed as reduction in sodium-dependent [14C]-inosine uptake in presence of Na+ by liquid scintillation counting method. In kind it is cell-based, COS-7.

Assay [2] addresses T2, Sodium/nucleoside cotransporter 2 (Homo sapiens) (UniProt O43868).
T2 sequence (whole entry): T1 sequence (O43868 whole entry)
Description: Inhibition of human CNT2 expressed in COS7 cells assessed as reduction in sodium-dependent [14C]-inosine uptake at 100 uM in presence of Na+ by liquid scintillation counting method. The format is cell-based. As to conditions: COS-7.

Assay [3] deals with T2, Sodium/nucleoside cotransporter 2 (Homo sapiens). Nature of the assay: Inhibition of human CNT2 expressed in COS7 cells assessed as reduction in sodium-dependent [14C]-inosine uptake at 1000 uM in presence of Na+ by liquid scintillation counting method. The format is cell-based. As to conditions: COS-7.
Assay [4] has the same target. Description: Potency index, ratio of IC50 for 2'-deoxy-5-fluorouridine to IC50 for test compound against human CNT2 expressed in COS7 cells by sodium-dependent [14C]-inosine uptake assay. The format is cell-based. As to conditions: COS-7.
Assay [5] shares this target. Nature of the assay: Potency index, ratio of IC50 for phlorizin to IC50 for test compound against human CNT2 expressed in COS7 cells by sodium-dependent [14C]-inosine uptake assay. As to conditions: COS-7. The format is cell-based.
For assay [6] the target is unchanged. Nature of the assay: Potency index, ratio of IC50 for 7,8,3'-trihydroxyflavone to IC50 for test compound against human CNT2 expressed in COS7 cells by sodium-dependent [14C]-inosine uptake assay. The format is cell-based. As to conditions: COS-7.

pIC50: −log10 of the molar value.

What is called pIC50 is the IC50 on a negative log10 scale, so that one unit is a factor of ten. `Cc1cccc(CNc2nc3c(N)ncnc3n2[C@@H]2O[C@H](CO)[C@@H](O)[C@H]2O)c1`: the pIC50 in assay [1] was 4.72.
What is called inhibition is how much of the control response was suppressed. Regarding `C[C@H](Nc1nc2c(N)ncnc2n1[C@@H]1O[C@H](CO)[C@@H](O)[C@H]1O)c1ccccc1`, the inhibition in assay [2] was under 5%.
As for `Nc1ncnc2c1nc(NCc1ccc(Cl)cc1)n2[C@@H]1O[C@H](CO)[C@@H](O)[C@H]1O`, the pIC50 in assay [1] is 4.96.
On to `Nc1ncnc2c1nc(SCc1ccccc1)n2[C@@H]1O[C@H](CO)[C@@H](O)[C@H]1O`, for which the inhibition in assay [2] is under 5%.
Take `Nc1ncnc2c1nc(NCc1cccc3ccccc13)n2[C@@H]1O[C@H](CO)[C@@H](O)[C@H]1O`: in assay [1], the pIC50 is 5.24.
As to `O=c1cc(-c2cccc(O)c2)oc2c(O)c(O)ccc12`, the pIC50 in assay [1] is under 3.00. Besides, the inhibition in assay [2] was under 5%; in assay [3] it was under 50%.
On to `Nc1ncnc2c1nc(NCCCc1ccccc1)n2[C@@H]1O[C@H](CO)[C@@H](O)[C@H]1O`, for which, in assay [1], the pIC50 was 3.27. Besides, in assay [2], the inhibition worked out at 26%.
In the case of `Nc1ncnc2c1nc(NCc1ccccc1)n2[C@@H]1O[C@H](CO)[C@@H](O)[C@H]1O`, in assay [1], the pIC50 was 4.28. Moreover, the inhibition in assay [2] was 58%.
For `CNC(=O)OC[C@H]1O[C@@H](n2cnc3c(N)ncnc32)[C@H](O)[C@@H]1O`, the pIC50 in assay [1] was under 4.00.
The same measure, in the same setting: the figure for `CCOC(=O)OC[C@H]1O[C@@H](n2cnc3c(N)ncnc32)[C@H](O)[C@@H]1O` is under 4.00.
Take `O=c1[nH]c(=O)n([C@H]2C[C@H](O)[C@@H](CO)O2)cc1F` [FLOXURIDINE]: in assay [1], the pIC50 was under 3.00. Further, the inhibition was 17% in assay [2] and under 50% in assay [3].
Take `Nc1ncnc2c1nc(NCc1cccc(-c3ccccc3)c1)n2[C@@H]1O[C@H](CO)[C@@H](O)[C@H]1O`: the pIC50 in assay [1] is 4.68.
Consider `Nc1ncnc2c1nc(NCc1ccccc1Cl)n2[C@@H]1O[C@H](CO)[C@@H](O)[C@H]1O`, for which, in assay [1], the pIC50 is 5.24.
Take `Nc1ncnc2c1nc(OCc1ccccc1)n2[C@@H]1O[C@H](CO)[C@@H](O)[C@H]1O`: in assay [2], the inhibition is under 5%.
As for `COc1cccc(CNc2nc3c(N)ncnc3n2[C@@H]2O[C@H](CO)[C@@H](O)[C@H]2O)c1`, the pIC50 in assay [1] was 4.89.
In the case of `O=C(CCc1ccc(O)cc1)c1c(O)cc(O)cc1O[C@@H]1O[C@H](CO)[C@@H](O)[C@H](O)[C@H]1O` [PHLORIZIN], the pIC50 in assay [1] is under 3.00. Also, the inhibition in assay [2] is 14%; in assay [3] it was under 50%.
Consider `COC(=O)OC[C@H]1O[C@@H](n2cnc3c(N)ncnc32)[C@H](O)[C@@H]1O`, for which, in assay [1], the pIC50 was under 4.00.
With `Cc1ccc(CNc2nc3c(N)ncnc3n2[C@@H]2O[C@H](CO)[C@@H](O)[C@H]2O)cc1`, the pIC50 in assay [1] is 4.96.
Turning to `Cc1ccccc1CNc1nc2c(N)ncnc2n1[C@@H]1O[C@H](CO)[C@@H](O)[C@H]1O`, the pIC50 in assay [1] was 4.19.
For the molecule `Nc1ncnc2c1nc(Nc1ccccc1)n2[C@@H]1O[C@H](CO)[C@@H](O)[C@H]1O`, the pIC50 in assay [1] was 3.54. For the same molecule, the inhibition in assay [2] worked out at 36%.
As for `Nc1ncnc2c1nc(NCc1ccc(-c3ccccc3)cc1)n2[C@@H]1O[C@H](CO)[C@@H](O)[C@H]1O`, the pIC50 in assay [1] is 6.19. Moreover, the Ratio IC50 in assay [4], in assay [5] and in assay [6] was 1500 in each case.
In the case of `Nc1ncnc2c1nc(NCc1cccc(Cl)c1)n2[C@@H]1O[C@H](CO)[C@@H](O)[C@H]1O`, in assay [1], the pIC50 is 5.27.
As to `Nc1ncnc2c1nc(NCCc1ccccc1)n2[C@@H]1O[C@H](CO)[C@@H](O)[C@H]1O`, the pIC50 in assay [1] was 3.63. Moreover, the inhibition in assay [2] stood at 39%.
As for `Nc1ncnc2c1nc(NCc1ccc3ccccc3c1)n2[C@@H]1O[C@H](CO)[C@@H](O)[C@H]1O`, in assay [1], the pIC50 is 5.28.
Take `Nc1ncnc2c1ncn2[C@@H]1O[C@H](COC(=O)Cc2ccccc2)[C@@H](O)[C@H]1O`: in assay [1], the pIC50 is under 4.00.
As for `CCCCCNC(=O)OC[C@H]1O[C@@H](n2cnc3c(N)ncnc32)[C@H](O)[C@@H]1O`, the pIC50 in assay [1] was under 4.00.
With `Nc1ncnc2c1nc(CCc1ccccc1)n2[C@@H]1O[C@H](CO)[C@@H](O)[C@H]1O`, the inhibition in assay [2] is under 5%.
For the molecule `CCCCCOC(=O)OC[C@H]1O[C@@H](n2cnc3c(N)ncnc32)[C@H](O)[C@@H]1O`, the pIC50 in assay [1] was under 4.00.
As for `Nc1ncnc2c1nc(NCc1ccccc1-c1ccccc1)n2[C@@H]1O[C@H](CO)[C@@H](O)[C@H]1O`, in assay [1], the pIC50 is under 4.00.
Take `CCCCCC(=O)OC[C@H]1O[C@@H](n2cnc3c(N)ncnc32)[C@H](O)[C@@H]1O`: the pIC50 in assay [1] is under 4.00.
As to `Nc1ncnc2c1ncn2[C@@H]1O[C@H](COC(=O)NCc2ccccc2)[C@@H](O)[C@H]1O`, the negative-log IC50 (pIC50) in assay [1] is under 4.00.
For the molecule `C[C@@H](Nc1nc2c(N)ncnc2n1[C@@H]1O[C@H](CO)[C@@H](O)[C@H]1O)c1ccccc1`, the inhibition in assay [2] was under 5%.
For `COc1ccc(CNc2nc3c(N)ncnc3n2[C@@H]2O[C@H](CO)[C@@H](O)[C@H]2O)cc1`, the pIC50 in assay [1] was 4.44.
In the case of `CN(Cc1ccccc1)c1nc2c(N)ncnc2n1[C@@H]1O[C@H](CO)[C@@H](O)[C@H]1O`, the inhibition in assay [2] was under 5%.
In the case of `COc1ccccc1CNc1nc2c(N)ncnc2n1[C@@H]1O[C@H](CO)[C@@H](O)[C@H]1O`, the pIC50 in assay [1] was under 4.00.
Turning to `CC(=O)OC[C@H]1O[C@@H](n2cnc3c(N)ncnc32)[C@H](O)[C@@H]1O`, the pIC50 in assay [1] was under 4.00.
Still for that read-out and setting: the figure for `Nc1ncnc2c1ncn2[C@@H]1O[C@H](COC(=O)OCc2ccccc2)[C@@H](O)[C@H]1O` is under 4.00; for `CCNC(=O)OC[C@H]1O[C@@H](n2cnc3c(N)ncnc32)[C@H](O)[C@@H]1O` it is under 4.00; for `CCC(=O)OC[C@H]1O[C@@H](n2cnc3c(N)ncnc32)[C@H](O)[C@@H]1O` it is under 4.00.

Source of the values: ChEMBL document CHEMBL3425401, “Identification of 8-aminoadenosine derivatives as a new class of human concentrative nucleoside transporter 2 inhibitors” (ACS Med Chem Lett, 2015).
